Data on four compounds can be found in patent US5177106A, “4-amino substituted phenoxyalkyl carboxylic acid, ester, and alcohol derivatives as antihypercholesterolemic and antiatherosclerotic agents” (Warner-Lambert Company, priority 1991, dated 1993).

The conditions of test [1]: patients with elevated cholesterol levels; 5-year trial; cited from earlier work.
In test [2] the target is T1, acyl-CoA:cholesterol acyltransferase (ACAT) (Oryctolagus cuniculus, UniProt G1SFD9).
T1 construct: rabbit intestinal microsomal fraction; from tissue; host or cells: rabbit intestine, microsomal fraction
T1 sequence (G1SFD9 1-524): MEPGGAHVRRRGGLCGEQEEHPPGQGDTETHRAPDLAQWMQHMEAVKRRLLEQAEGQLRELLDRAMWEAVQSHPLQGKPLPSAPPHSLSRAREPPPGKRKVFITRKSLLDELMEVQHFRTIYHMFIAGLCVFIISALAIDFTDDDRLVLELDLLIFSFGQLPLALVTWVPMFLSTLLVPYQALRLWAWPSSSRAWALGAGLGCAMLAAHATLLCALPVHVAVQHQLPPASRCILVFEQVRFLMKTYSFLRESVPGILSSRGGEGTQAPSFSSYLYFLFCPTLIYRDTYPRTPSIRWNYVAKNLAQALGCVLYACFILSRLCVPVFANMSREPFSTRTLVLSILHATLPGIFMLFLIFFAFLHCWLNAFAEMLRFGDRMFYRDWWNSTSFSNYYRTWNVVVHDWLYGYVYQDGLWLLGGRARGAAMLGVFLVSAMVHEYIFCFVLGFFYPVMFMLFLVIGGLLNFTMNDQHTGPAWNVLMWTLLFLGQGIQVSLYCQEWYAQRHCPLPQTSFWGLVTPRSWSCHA
Nature of the test: Inhibition of cholesterol esterification by acyl-CoA:cholesterol acyltransferase (ACAT), in vitro, rabbit intestinal microsomal fraction. It is filed as biochemical. The settings on record: endogenous cholesterol and exogenous 14C-oleoyl-CoA, read-out: IC50 (concentration of test compound required to inhibit cholesteryl oleate formation to 50% of control). The method, then: The compounds of the present invention were tested for their ability to inhibit the esterification of cholesterol by the enzyme acyl-CoA:cholesterol acyltransferase (ACAT). The data in the table below is expressed as IC50 values, i.e., the concentration of test compound required to inhibit cholesteryl oleate formation to 50% of control.
The in vitro test employed is more fully described in Field, F. J. and Salome, R. G., Biochemica et Biophysica Acta, Volume 712, pages 557-570 (1982). The assay evaluates the ability of a test compound to inhibit the esterification of cholesterol using endogenous cholesterol of a rabbit intestinal microsomal fraction and exogenous ^14 C-oleoyl-CoA as reactants.

A short description of test [3]: Elevation of HDL by test drug relative to gemfibrozil (test procedure of U.S. Pat. No. 4,413,011). It is filed as in vivo. The settings on record: ratio; 50 mg/kg test drug vs 50 mg/kg gemfibrozil; 1 = as effective as gemfibrozil. The method, then: Additionally, the elevation of HDL is reported in the table as a ratio of the elevation of HDL effected by a dose of 50 mg/kg of the test drug divided by the elevation of HDL effected by a 50 mg/kg dose of gemfibrozil which is used as a control in each experiment. [formula] Thus, a figure of 1 means that the test drug was as effective as gemfibrozil in elevating HDL. […] The test procedure is described in U.S. Pat. No. 4,413,011, which is herein incorporated by reference.

For `Cc1ccc(C)c(OCCCC(C)(C)C(=O)O)c1` [gemfibrozil], the “reduction of the rate of heart attack and sudden cardiac death” value in test [1] is 34%. For the compound `COC(=O)C(C)(C)CCCOc1cc(C)c(NS(C)(=O)=O)cc1C` [Example 12], the IC50 in test [2] was found to be 69 µM. Moreover, the “Δ HDL Test Compound / Δ HDL Gemfibrozil” value in test [3] was 1.5. In the same order, the values of `COC(=O)C(C)(C)CCCOc1cc(C)c(NC(=S)Nc2ccccc2)cc1C` [Example 16, 5-[2,5-Dimethyl-4-[[(phenylamino)-thioxomethyl]amino]phenoxy]-2,2-dimethylpentanoic acid, methyl ester] are 28 µM and 0.9. Taken in the same sequence, the figures for `CCCCCCCCCCCCCCCCS(=O)(=O)Nc1cc(C)c(OCCCC(C)(C)C(=O)OC)cc1C` [Example 5, 5-[4-[(Hexadecylsulfonyl)amino]-2,5-dimethylphenoxy]-2,2-dimethylpentanoic acid, methyl ester] were 74 µM and 0.8.
